One experiment relates to KDHba. Format: biochemical, Burkholderia ambifaria. Particulars: aldehyde oxidation.
In the next experiment the target is T1, PadA (Escherichia coli, UniProt P80668).
T1 sequence (P80668 1-499): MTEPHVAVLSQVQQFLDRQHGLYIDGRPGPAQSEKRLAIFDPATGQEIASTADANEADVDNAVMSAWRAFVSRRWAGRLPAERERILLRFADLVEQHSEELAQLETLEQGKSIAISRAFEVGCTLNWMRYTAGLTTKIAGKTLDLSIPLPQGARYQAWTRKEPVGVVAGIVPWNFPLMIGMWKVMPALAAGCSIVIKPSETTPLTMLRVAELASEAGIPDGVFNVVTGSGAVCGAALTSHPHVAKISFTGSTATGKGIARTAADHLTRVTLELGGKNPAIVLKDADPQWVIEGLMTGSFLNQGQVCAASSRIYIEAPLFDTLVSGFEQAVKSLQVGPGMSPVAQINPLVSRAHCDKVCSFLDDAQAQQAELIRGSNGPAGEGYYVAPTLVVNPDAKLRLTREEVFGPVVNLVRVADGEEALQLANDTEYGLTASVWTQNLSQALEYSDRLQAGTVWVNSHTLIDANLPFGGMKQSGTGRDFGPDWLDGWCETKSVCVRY
The experiment can be described thus: in vitro enzyme kinetics. It counts as biochemical. Particulars: aldehyde oxidation.

The Km is the concentration of substrate that gives half-maximal velocity.

Each structure is given as a SMILES string.

In the case of `CC(C)C=O` [isobutanal], the Km in the experiment on KDHba was 34500 µM.

Regarding `CC(C)CC=O` [isopentanal], the Km on PadA turned out to be 1950 µM. Regarding `CC(C)CCC=O` [isohexanal], the Km with KDHba worked out at 520 µM.

For the origin of these results see publication PMC3301443 (Scientific Reports, 2012).
